# According to PMC6206036, “Locking loop movement in the ubiquinone pocket of complex I disengages the proton pumps” (Nature Communications, 2018):
# Where two headings read alike, the source gives them in different places.
# B1: Complex I (proton-pumping NADH:ubiquinone oxidoreductase) (Yarrowia lipolytica CLIB122) (protein)
# chain 1: MATTALPQDPIPSGALGQKVPHVDESHQDLLFRTSHMVEDLETYDEDSPINTSDANTRIRAFTINFGPQHPAAHGVLRLILELSGEEIIRSDPHVGLLHRGTEKLIEYKTYMQALPYFDRLDYVSMMTNEQVFSLAVEKLLNVEVPLRGKYIRTMFGEITRVLNHLMSVCSHAMDVGALTPFLWGFEEREKLMEFYERVSGARLHAAYVRPGGVSQDLPAGLLDDIYMWATQFGDRLDEIEELLTDNRIWKLRTVNIGTVTAQDALNLGLSGPMLRGSGIPFDIRKNAPYDAYDKVDFDVPVGMNGDCYDRYLIRMAEFRQSLRIIEQCCNDMPAGAVKVEDFKINSPPRNLMKEDMEALIHHFLLYTKGYSVPPGETYTAIEAPKGEMGVYVVSDGSERPYKCKIRAPGFAHLGAFDHIARGHFLPDAVAIIGTMDLVFGEVDR
# chain 2: SAPAGTPRVSSSSMPTDFPLPSQQKPNSAVDYTLTTLDAVANWARQGSFWPVTFGLACCAVEMMHVSAPRYDQDRLGIIFRASPRQSDIMIVAGTLTNKMAPVLRQVYDQMPEPRWVISMGSCANGGGYYHFSYSVVRGCDRIVPVDVYVPGCPPTSEALMYGVFQLQRKMRNTKITRMWYRK
# chain 3: MIINIVEILIFLVCVLFSVAYLTVAERKTLAYMQRRLGPNFVGYYGLLQAFADAVKLLLKEIVLPKESNYIILVISPLITLITALIGWVVIPLGPGITLGELNLGILFSLAIGSLGVFGSLLSGWSSNSKYSLLGSIRSTAQLISYELILTSIFIIIIMFVSSLNITTIIETQRVVWYCIPLLPLLLIFFIASVAETARPPFDLTESESELVAGYFTEYSGSPFVFFFLAEYSNIILISAFNGYLLLGGYLSFNYSYLFNILFNDYSYVSFLFEGLINSSAYAIKLVFLMFSFIWVRAAFPRFTYDNLINFCWIILLPLLFGIFLIIPSTLYIFDSFPTLI
# chain 4: MNTFIIFIILIPIVGFALLAVNILLAVYKPYNEKLGAFECGLTSFNQTRLAFNAAFILVAILFLPFDLEISTLLPYVMSIYLVSNYGFTIVLLFLLILIIGFVYEINTNALKINKHNKPNTDSLIYKL
# notes: native complete respiratory complex I in unsealed mitochondrial membranes; nugm-Htg2 (tagged NUGM) strain background; NUKM expressed from replicative plasmid pUB4 under endogenous promoter; 14 central plus accessory subunits; with NADH-ubiquinone oxidoreductase 51 kDa subunit, mitochondrial
# How the values were obtained:
# [1] = target: T1, Complex I (proton-pumping NADH:ubiquinone oxidoreductase) (Yarrowia lipolytica, UniProt Q9B6C7+Q9B6E8+Q9UUT7+Q9UUU1); assay: dNADH:DBQ oxidoreductase activity at […] nm, mitochondrial membranes; assay type: biochemical; conditions: 100 µM dNADH, DBQ 0-100 µM, pH 8.5, 25 °C; membranes preincubated with 5 mM DTT for 5 min (ND3-PSST disulfide reduced); read-out: K M ^d /
# T1 construct: gene nucm; native complete respiratory complex I in unsealed mitochondrial membranes; nugm-Htg2 (tagged NUGM) strain background; NUKM expressed from replicative plasmid pUB4 under endogenous promoter; 14 central plus accessory subunits; with NADH-ubiquinone oxidoreductase 51 kDa subunit, mitochondrial
# [2] = target: T1, Complex I (proton-pumping NADH:ubiquinone oxidoreductase); assay: inhibition of dNADH:DBQ oxidoreductase activity, mitochondrial membranes; assay type: biochemical
# Excerpt: inhibition of dNADH:DBQ oxidoreductase activity, mitochondrial membranes on Complex I (proton-pumping NADH:ubiquinone oxidoreductase)
# [3] = substrate: CCCCCCCCCCC1=C(C)C(=O)C(OC)=C(OC)C1=O; assay: cells, lysate or membranes; assay type: biochemical, Yarrowia lipolytica; conditions: 100 µM dNADH, DBQ 0-100 µM, pH 8.5, 25 °C, membranes preincubated with 5 mM DTT for 5 min
molecule,measurement,setting,value
"CCCCCCCCCCC1=C(C)C(=O)C(OC)=C(OC)C1=O [DBQ, decylubiquinone]",Km,[1],19 ± 3 µM
"CCCCCCCCCCc1nc(N)c2ccccc2n1 [DQA, 2-n-decyl-quinazolin-4-yl-amine]",IC50,"[2]; 100 µM dNADH, 100 µM DBQ, pH 8.5, 25 °C, membranes preincubated with 5 mM DTT for 5 min (ND3-PSST disulfide reduced)",0.013 ± 0.003 µM
same,IC50,"[2]; 100 µM dNADH, 100 µM DBQ, pH 8.5, 25 °C, membranes preincubated with 5 mM DTT for 5 min, read-out: IC50^e / DQA /",0.016 ± 0.003 µM
C=C(C)[C@H]1Cc2c(ccc3c2O[C@@H]2COc4cc(OC)c(OC)cc4[C@@H]2C3=O)O1 [rotenone],IC50,[2]; read-out: IC50^e / Rotenone /,0.56 ± 0.055 µM
B1,Km,[3],17 ± 3 µM
same,Vmax,[3],0.16 µmol/min/mg
